Laboratory results as given in paper PMC4212090, “The comprehensive analysis of DEG/ENaC subunits in Hydra reveals a large variety of peptide-gated channels, potentially involved in neuromuscular transmission” (BMC Biology, 2014).
Several values for one entry are separate records, joined by “and”; a condition that tells them apart may be missing. Equal entries are not always repeated. Entries after “also recorded” stand apart in the source; their conditions may differ. Where two headings read alike, the source gives them in different places.

Tests used:
HyNaC2/3/5 [1] = target: T1, HyNaC2/3/5 (Hydra vulgaris (Hydra magnipapillata), UniProt A8DZR6+A8DZR7+D3UD58); assay: Inhibition of HyNaC2/3/5 currents in Xenopus oocytes (TEVC); assay type: cell-based; settings: read-out: IAmil/I, relative current remaining after block by 100 μM amiloride
Procedure: (§1) One of the hallmarks of DEG/ENaCs is the block by the diuretic amiloride.
(§2) Figure 10 Diminazene is a potent inhibitor of HyNaCs. A) Current trace illustrating the concentration-dependent inhibition of HyNaC2/9/7 by diminazene. Block by 100 μM amiloride was used to compare the affinity for diminazene and amiloride. […] Dashed lines represent the zero current level. B) Concentration-response curves showing the concentration-dependent inhibition of HyNaCs by diminazene. HyNaCs, Hydra Na^+ channels.
(§3) To study the biophysical properties of the new HyNaCs, cRNA of HyNaCs was synthesized in vitro (mMessage mMachine kit, Ambion, Austin, Texas, USA) and injected into Xenopus laevis oocytes of stage V and VI. […] Whole cell currents were recorded from defolliculated oocytes by two-electrode voltage-clamp (TEVC) using the amplifier TurboTec 03X (npi electronic GmbH, Tamm, Germany). […]
(§4) EC50 values for Hydra-RFamides I and II as well as IC50 values for diminazene were determined by fits to the Hill equation using IGOR Pro (version 6.06, WaveMetrics, Inc.). Reversal potentials were defined as the first recorded data point, where currents reversed signs from negative to positive. […]

HyNaC2/10/7 [2] = target: T2, HyNaC2/10/7 (Hydra vulgaris (Hydra magnipapillata), UniProt A0A0A0MP61+A0A0A0MP73+A8DZR6); assay: Inhibition of HyNaC2/10/7 currents in Xenopus oocytes (TEVC); assay type: cell-based; settings: read-out: IAmil/I, relative current remaining after block by 100 μM amiloride
Procedure: as §1, §2, §3, §4

HyNaC2/11/5 [3] = target: T3, HyNaC2/11/5 (Hydra vulgaris (Hydra magnipapillata), UniProt A0A0A0MP55+A8DZR6+D3UD58); assay: Inhibition of HyNaC2/11/5 currents in Xenopus oocytes (TEVC); assay type: cell-based; settings: read-out: IAmil/I, relative current remaining after block by 100 μM amiloride
Procedure: as §1, §2, §3, §4

Hydra magnipapillata = system: Hydra magnipapillata; parameters: method as in PMID 20159980; settings: 100 μM amiloride; ref [4]; cited from earlier work
HyNaC2/3/7 [4] = target: T4, HyNaC2/3/7 (Hydra vulgaris (Hydra magnipapillata), UniProt A0A0A0MP73+A8DZR6+A8DZR7); assay: Inhibition of HyNaC2/3/7 currents in Xenopus oocytes (TEVC); assay type: cell-based; settings: read-out: IAmil/I, relative current remaining after block by 100 μM amiloride
Procedure: as §1, §2, §3, §4

HyNaC2/3/6 [5] = target: T5, HyNaC2/3/6 (Hydra vulgaris (Hydra magnipapillata), UniProt A0A0A0MP54+A8DZR6+A8DZR7); assay: Inhibition of HyNaC2/3/6 currents in Xenopus oocytes (TEVC); assay type: cell-based; settings: read-out: IAmil/I, relative current remaining after block by 100 μM amiloride
Procedure: as §1, §2, §3, §4

HyNaC2/3/5 [6] = target: T1, HyNaC2/3/5; parameters: method as in PMID 20159980; settings: ref [4], read-out: IC50 (apparent amiloride affinity); cited from earlier work
HyNaC2/4/6 [7] = target: T6, HyNaC2/4/6 (Hydra vulgaris (Hydra magnipapillata), UniProt A0A0A0MP54+A8DZR6+A8DZR8); assay: Inhibition of HyNaC2/4/6 currents in Xenopus oocytes (TEVC); assay type: cell-based; settings: read-out: IAmil/I, relative current remaining after block by 100 μM amiloride
Procedure: as §1, §2, §3, §4

HyNaC2/9/7 [8] = target: T7, HyNaC2/9/7 (Hydra vulgaris (Hydra magnipapillata), UniProt A0A0A0MP48+A0A0A0MP73+A8DZR6); assay: Inhibition of HyNaC2/9/7 currents in Xenopus oocytes (TEVC); assay type: cell-based; settings: read-out: IAmil/I, relative current remaining after block by 100 μM amiloride
Procedure: as §1, §2, §3, §4

[9] = system: functional HyNaC heterotrimer; assay: Screen of functional HyNaC heterotrimers in Xenopus oocytes for activation by Hydra-RFamides; assay type: cell-based, Hydra magnipapillata; settings: 5 μM peptide; Xenopus oocytes
Procedure: We tested the function of the new HyNaCs by co-expression of different HyNaC subunit combinations in Xenopus oocytes. We screened for functional subunit combinations by application of 5 μM Hydra-RFamide I, a potent agonist of HyNaC2/3/5 [4]. When we expressed an individual HyNaC subunit we could never elicit currents. […] When HyNaC2 was part of the injected cRNA pool, however, Hydra-RFamide I elicited currents. Simultaneous expression of HyNaC2 with a single other HyNaC resulted only in a functional channel when we co-expressed HyNaC2 and HyNaC3; it was already known that HyNaC2 and HyNaC3 form a low-affinity peptide-gated channel.
Dashed line represents the zero current level. Amino acid sequences of Hydra-RFamides I to V are shown at the bottom. HyNaC, Hydra Na^+ channel.
Since Hydra-RFamide II had been shown previously to activate HyNaC2/3/5 [4], we tested Hydra-RFamides II to V for channel activation.
(§5) To study the biophysical properties of the new HyNaCs, cRNA of HyNaCs was synthesized in vitro (mMessage mMachine kit, Ambion, Austin, Texas, USA) and injected into Xenopus laevis oocytes of stage V and VI. After injection, oocytes were incubated for one to two days at 19°C in oocyte Ringer’s solution 2 (OR-2), which contained (in mM): 82.5 NaCl, 2.5 KCl, 1.0 Na2HPO4, 1.0 MgCl2, 1.0 CaCl2, 5.0 HEPES, 0.5 g/l PVP, 1,000 U/l penicillin and 10 mg/l streptomycin, NaOH was used to adjust pH to 7.3. Whole cell currents were recorded from defolliculated oocytes by two-electrode voltage-clamp (TEVC) using the amplifier TurboTec 03X (npi electronic GmbH, Tamm, Germany). Standard bath solution (in mM: 140 NaCl, 10 HEPES, 1.8 CaCl2 and 1.0 MgCl2. NaOH was used to adjust pH to 7.4.) was exchanged by a pump driven system combined with the oocyte testing carousel (OTC), which was controlled by the interface OTC-20 [53]. To control the OTC-20 and to record the data to the hard drive, the software CellWorks (version 5.1.1; npi electronic GmbH, Tamm, Germany) was used. Data were sampled at 0.1 to 1 kHz and filtered at 20 Hz. HyNaCs are permeable for Ca^2+, activating an endogenous CaCC [40]. Therefore, unless otherwise indicated, oocytes were injected with 50 nl of 20 mM EGTA 30 to 180 minutes before measurements. Reversal potentials and Ca^2+ permeabilities of HyNaCs were studied as described previously.

HyNaC2/9/7 [10] = target: T7, HyNaC2/9/7; assay: Activation of HyNaC2/9/7 expressed in Xenopus oocytes by Hydra-RFamides (TEVC); assay type: cell-based
Procedure: as §5
(§6) EC50 values for Hydra-RFamides I and II as well as IC50 values for diminazene were determined by fits to the Hill equation using IGOR Pro (version 6.06, WaveMetrics, Inc.). Reversal potentials were defined as the first recorded data point, where currents reversed signs from negative to positive. For I/V relationships, voltage ramps in the absence of the agonist were used to subtract background conductances. Results are reported as mean ± standard error.

HyNaC2/9/5 = assay: Activation of HyNaC2/9/5 in Xenopus oocytes by Hydra-RFamides; assay type: cell-based, Hydra magnipapillata; settings: channel opened by lowering extracellular Ca2+
Procedure: (§7) The contribution of the distantly related HyNaC12 to peptide-gated channels was assessed by co-expression with HyNaC2 and one or several other HyNaCs (HyNaC3 to HyNaC11). In addition, HyNaC12 was co-expressed with pools of different HyNaCs without HyNaC2. […] In fact, all HyNaCs that were activated by Hydra-RFamide I were opened by lowering the extracellular Ca^2+ concentration ([Ca^2+]e) to 10 nM (Figure 4). […] Some DEG/ENaCs are constitutively opened by an amino acid substitution at the so-called DEG-position. To further investigate whether HyNaC12 forms a functional homomeric channel, we substituted a glycine at the DEG-position by threonine (G436T), which has a large side chain. This substitution did, however, not constitutively open HyNaC12 (data not shown). This applies also for the co-expression of HyNaC12-G436T together with pools of different wild-type HyNaC subunits, leaving the function of HyNaC12 unknown.
as §3

HyNaC2/3/5 [11] = target: T1, HyNaC2/3/5; assay: Activation of HyNaC2/3/5 expressed in Xenopus oocytes by Hydra-RFamides (TEVC); assay type: cell-based
Procedure: as §5, §6

HyNaC2/4/6 [12] = target: T6, HyNaC2/4/6; assay: Activation of HyNaC2/4/6 expressed in Xenopus oocytes by Hydra-RFamides (TEVC); assay type: cell-based
Procedure: as §5, §6

HyNaC2/10/7 [13] = target: T2, HyNaC2/10/7; assay: Activation of HyNaC2/10/7 expressed in Xenopus oocytes by Hydra-RFamides (TEVC); assay type: cell-based; settings: EGTA-injected oocytes, saturating ligand concentration not reached
Procedure: as §5, §6

HyNaC2/11/5 [14] = target: T3, HyNaC2/11/5; assay: Activation of HyNaC2/11/5 expressed in Xenopus oocytes by Hydra-RFamides (TEVC); assay type: cell-based
Procedure: as §5, §6

HyNaC2/3/6 [15] = target: T5, HyNaC2/3/6; assay: Activation of HyNaC2/3/6 expressed in Xenopus oocytes by Hydra-RFamides (TEVC); assay type: cell-based
Procedure: as §5, §6

HyNaC2/3/7 [16] = target: T4, HyNaC2/3/7; assay: Activation of HyNaC2/3/7 expressed in Xenopus oocytes by Hydra-RFamides (TEVC); assay type: cell-based
Procedure: as §5, §6

[17] = system: HyNaCs containing HyNaC12; assay: Activation of HyNaC12-containing subunit combinations in Xenopus oocytes by Hydra-RFamides; assay type: cell-based, Hydra magnipapillata; settings: HyNaC12 co-expressed with HyNaC2 and other HyNaCs or pools; 5 μM peptide
Procedure: as §7, with “unknown. […]” for “unknown.”
as §3

HyNaC2/3/5 [18] = target: T1, HyNaC2/3/5; parameters: method as in PMID 20159980; settings: for comparison, ref [4], read-out: EC50 for Hydra-RFamide I; cited from earlier work
[19] = EGTA-injected oocytes, read-out: EC50 RFa I
[20] = Hydra-RFamide I concentration-response

T1 sequence (A8DZR6 entry or part of it): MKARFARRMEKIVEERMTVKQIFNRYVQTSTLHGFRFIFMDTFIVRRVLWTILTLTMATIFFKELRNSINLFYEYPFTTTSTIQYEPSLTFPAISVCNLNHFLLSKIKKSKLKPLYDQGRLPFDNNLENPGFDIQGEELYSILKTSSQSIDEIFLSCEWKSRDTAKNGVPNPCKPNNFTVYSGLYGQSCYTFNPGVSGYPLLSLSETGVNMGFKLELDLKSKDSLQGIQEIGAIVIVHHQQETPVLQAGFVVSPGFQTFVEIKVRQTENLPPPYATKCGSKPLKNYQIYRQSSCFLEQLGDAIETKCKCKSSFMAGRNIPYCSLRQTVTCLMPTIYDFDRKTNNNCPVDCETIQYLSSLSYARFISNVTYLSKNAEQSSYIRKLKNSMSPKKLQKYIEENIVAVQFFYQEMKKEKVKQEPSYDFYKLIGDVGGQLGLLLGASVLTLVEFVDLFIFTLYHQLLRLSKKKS
T1 sequence (D3UD58 entry or part of it): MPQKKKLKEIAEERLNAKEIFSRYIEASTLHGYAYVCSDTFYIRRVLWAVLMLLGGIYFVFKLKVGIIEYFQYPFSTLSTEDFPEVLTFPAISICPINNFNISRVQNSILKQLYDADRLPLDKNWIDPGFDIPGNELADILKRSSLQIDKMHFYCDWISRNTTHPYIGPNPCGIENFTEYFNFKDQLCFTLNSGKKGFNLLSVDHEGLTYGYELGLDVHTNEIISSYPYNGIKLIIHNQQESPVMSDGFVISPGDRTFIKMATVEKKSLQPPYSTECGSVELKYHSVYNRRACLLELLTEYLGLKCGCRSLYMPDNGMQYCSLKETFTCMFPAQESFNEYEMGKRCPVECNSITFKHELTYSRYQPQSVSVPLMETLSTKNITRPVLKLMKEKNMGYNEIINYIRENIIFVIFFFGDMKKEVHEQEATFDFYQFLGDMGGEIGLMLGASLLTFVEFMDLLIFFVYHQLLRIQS
T1 sequence (A8DZR7 entry or part of it): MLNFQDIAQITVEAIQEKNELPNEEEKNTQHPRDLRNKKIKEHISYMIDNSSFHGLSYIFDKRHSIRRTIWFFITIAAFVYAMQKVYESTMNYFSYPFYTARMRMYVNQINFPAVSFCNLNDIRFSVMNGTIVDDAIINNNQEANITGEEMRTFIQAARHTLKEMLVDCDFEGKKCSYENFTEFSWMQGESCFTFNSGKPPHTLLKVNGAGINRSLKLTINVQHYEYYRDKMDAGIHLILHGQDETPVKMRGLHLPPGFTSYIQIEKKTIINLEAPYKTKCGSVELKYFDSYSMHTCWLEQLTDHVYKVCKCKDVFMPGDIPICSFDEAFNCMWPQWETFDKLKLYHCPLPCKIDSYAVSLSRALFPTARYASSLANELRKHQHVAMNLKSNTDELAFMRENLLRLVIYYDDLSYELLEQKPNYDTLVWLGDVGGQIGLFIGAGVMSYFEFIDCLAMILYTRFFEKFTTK
T7 sequence (A0A0A0MP48 entry or part of it): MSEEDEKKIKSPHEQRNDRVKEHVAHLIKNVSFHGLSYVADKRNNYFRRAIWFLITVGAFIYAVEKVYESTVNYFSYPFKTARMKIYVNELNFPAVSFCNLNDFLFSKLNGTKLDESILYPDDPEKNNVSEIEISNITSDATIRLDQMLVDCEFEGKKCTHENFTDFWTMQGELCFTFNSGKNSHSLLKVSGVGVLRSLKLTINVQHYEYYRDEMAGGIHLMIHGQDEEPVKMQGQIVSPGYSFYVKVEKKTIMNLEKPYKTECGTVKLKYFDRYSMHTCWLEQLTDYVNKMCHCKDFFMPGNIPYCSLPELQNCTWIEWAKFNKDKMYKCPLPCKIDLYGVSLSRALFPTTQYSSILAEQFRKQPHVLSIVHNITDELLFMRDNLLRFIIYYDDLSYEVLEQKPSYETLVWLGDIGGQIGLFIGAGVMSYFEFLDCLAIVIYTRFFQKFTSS
T7 sequence (A8DZR6 entry or part of it): as the sequence (A8DZR6 entry or part of it) above
T7 sequence (A0A0A0MP73 entry or part of it): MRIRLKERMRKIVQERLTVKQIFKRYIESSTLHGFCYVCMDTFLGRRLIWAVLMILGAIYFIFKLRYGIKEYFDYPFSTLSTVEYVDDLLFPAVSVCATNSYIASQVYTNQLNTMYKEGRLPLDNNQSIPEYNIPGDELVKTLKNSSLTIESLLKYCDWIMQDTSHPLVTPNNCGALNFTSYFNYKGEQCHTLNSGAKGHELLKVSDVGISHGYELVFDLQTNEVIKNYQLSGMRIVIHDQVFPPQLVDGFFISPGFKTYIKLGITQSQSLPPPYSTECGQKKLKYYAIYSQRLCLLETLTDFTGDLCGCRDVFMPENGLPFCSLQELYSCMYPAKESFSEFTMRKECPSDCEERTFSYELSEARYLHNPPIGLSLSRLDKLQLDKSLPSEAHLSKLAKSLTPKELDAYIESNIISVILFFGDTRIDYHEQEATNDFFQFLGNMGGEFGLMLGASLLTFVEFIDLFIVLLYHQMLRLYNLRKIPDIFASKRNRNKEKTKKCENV
T5 sequence (A0A0A0MP54 entry or part of it): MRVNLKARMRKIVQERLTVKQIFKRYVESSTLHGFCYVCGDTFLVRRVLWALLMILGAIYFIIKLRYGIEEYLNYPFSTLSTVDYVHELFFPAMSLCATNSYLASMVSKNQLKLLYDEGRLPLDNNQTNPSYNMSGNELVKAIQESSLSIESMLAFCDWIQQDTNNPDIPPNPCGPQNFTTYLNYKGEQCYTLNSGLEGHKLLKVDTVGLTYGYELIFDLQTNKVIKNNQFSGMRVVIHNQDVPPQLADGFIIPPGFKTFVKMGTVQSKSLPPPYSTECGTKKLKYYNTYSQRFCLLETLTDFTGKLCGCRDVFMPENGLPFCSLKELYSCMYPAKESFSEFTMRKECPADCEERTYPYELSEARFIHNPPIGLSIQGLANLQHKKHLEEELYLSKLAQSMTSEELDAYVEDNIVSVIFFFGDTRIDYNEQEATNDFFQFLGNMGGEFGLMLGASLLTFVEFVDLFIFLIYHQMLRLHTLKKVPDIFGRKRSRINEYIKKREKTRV
T5 sequence (A8DZR7 entry or part of it): as the sequence (A8DZR7 entry or part of it) above
T5 sequence (A8DZR6 entry or part of it): as the sequence (A8DZR6 entry or part of it) above
T4 sequence (A8DZR7 entry or part of it): as the sequence (A8DZR7 entry or part of it) above
T4 sequence (A0A0A0MP73 entry or part of it): as the sequence (A0A0A0MP73 entry or part of it) above
T4 sequence (A8DZR6 entry or part of it): as the sequence (A8DZR6 entry or part of it) above
T6 sequence (A8DZR8 entry or part of it): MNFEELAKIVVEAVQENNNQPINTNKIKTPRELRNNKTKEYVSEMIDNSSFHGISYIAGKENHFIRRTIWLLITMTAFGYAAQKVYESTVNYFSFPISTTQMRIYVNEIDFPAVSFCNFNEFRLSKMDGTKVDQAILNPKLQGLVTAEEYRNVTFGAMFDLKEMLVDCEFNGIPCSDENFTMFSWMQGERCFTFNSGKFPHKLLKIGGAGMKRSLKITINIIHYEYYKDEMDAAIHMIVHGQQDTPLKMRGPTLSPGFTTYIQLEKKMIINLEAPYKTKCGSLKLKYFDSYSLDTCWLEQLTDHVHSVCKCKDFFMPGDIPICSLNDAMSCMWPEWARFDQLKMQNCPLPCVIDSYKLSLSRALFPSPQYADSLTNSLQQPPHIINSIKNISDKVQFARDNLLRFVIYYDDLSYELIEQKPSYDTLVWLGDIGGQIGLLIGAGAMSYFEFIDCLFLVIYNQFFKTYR
T6 sequence (A0A0A0MP54 entry or part of it): as the sequence (A0A0A0MP54 entry or part of it) above
T6 sequence (A8DZR6 entry or part of it): as the sequence (A8DZR6 entry or part of it) above
T2 sequence (A0A0A0MP61 entry or part of it): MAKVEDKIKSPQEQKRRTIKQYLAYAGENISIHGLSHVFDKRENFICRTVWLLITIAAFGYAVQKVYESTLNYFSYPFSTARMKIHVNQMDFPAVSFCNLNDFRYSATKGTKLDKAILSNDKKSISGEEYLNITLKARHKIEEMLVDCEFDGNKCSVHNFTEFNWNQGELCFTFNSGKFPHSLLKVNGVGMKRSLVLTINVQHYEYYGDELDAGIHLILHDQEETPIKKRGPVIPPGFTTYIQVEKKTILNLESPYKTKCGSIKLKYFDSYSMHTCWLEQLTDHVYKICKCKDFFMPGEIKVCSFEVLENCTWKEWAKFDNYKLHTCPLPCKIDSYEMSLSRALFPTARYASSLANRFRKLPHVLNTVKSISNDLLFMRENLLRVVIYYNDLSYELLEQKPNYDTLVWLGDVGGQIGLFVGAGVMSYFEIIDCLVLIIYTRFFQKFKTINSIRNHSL
T2 sequence (A0A0A0MP73 entry or part of it): as the sequence (A0A0A0MP73 entry or part of it) above
T2 sequence (A8DZR6 entry or part of it): as the sequence (A8DZR6 entry or part of it) above
T3 sequence (A0A0A0MP55 entry or part of it): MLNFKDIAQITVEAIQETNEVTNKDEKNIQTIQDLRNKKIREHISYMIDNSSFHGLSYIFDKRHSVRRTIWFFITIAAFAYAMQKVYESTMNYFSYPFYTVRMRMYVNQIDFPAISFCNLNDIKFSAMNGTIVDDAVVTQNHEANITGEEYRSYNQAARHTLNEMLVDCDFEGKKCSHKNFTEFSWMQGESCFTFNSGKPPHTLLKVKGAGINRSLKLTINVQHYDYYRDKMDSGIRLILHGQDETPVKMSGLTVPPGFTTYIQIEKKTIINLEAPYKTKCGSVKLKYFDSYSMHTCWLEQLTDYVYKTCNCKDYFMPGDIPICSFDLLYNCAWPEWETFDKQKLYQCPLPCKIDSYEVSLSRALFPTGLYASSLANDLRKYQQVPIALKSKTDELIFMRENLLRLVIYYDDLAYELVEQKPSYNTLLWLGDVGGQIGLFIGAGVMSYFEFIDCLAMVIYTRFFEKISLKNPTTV
T3 sequence (A8DZR6 entry or part of it): as the sequence (A8DZR6 entry or part of it) above
T3 sequence (D3UD58 entry or part of it): as the sequence (D3UD58 entry or part of it) above

## N=C(N)NC(=O)c1nc(Cl)c(N)nc1N [amiloride]
HyNaC2/3/5 [1]
  remaining activity at 100 µM: 50 ± 10%
HyNaC2/10/7 [2]
  remaining activity at 100 µM: 80 ± 10%
HyNaC2/11/5 [3]
  remaining activity at 100 µM: 70 ± 10%
Hydra magnipapillata
  feeding reaction of living Hydra: delays the feeding reaction
HyNaC2/3/7 [4]
  remaining activity at 100 µM: 30 ± 10%
HyNaC2/3/6 [5]
  remaining activity at 100 µM: 30 ± 10%
HyNaC2/3/5 [6]
  IC50: ~120 µM
HyNaC2/4/6 [7]
  remaining activity at 100 µM: 30 ± 10%
HyNaC2/9/7 [8]
  remaining activity at 100 µM: 30 ± 10%

## Hydra-RFamide I
[9]
  activation of functional HyNaC heterotrimers (current elicited): activation of HyNaCs
HyNaC2/9/7 [10]; [19]
  EC50: 0.04 ± 0.01 µM
HyNaC2/9/7 [10]; [20]
  Hill Coeff.: 1.5 ± 0.3
HyNaC2/9/5
  activation of HyNaC2/9/5: insensitive; also recorded: not activated
HyNaC2/3/5 [11]; EGTA-injected oocytes
  Imax RFa I, current amplitude at maximal concentration of Hydra-RFamide I: 9.2 ± 1.9 μA and 9.2 ± 1.9 (9) μA
HyNaC2/3/5 [11]; [19]
  EC50: 3.48 ± 0.55 µM
HyNaC2/3/5 [11]; [20]
  Hill Coeff.: 1.2 ± 0.1
HyNaC2/4/6 [12]; EGTA-injected oocytes
  EC50: 0.7 ± 0.08 µM
HyNaC2/4/6 [12]; [20]
  Hill Coeff.: 1.3 ± 0.1
HyNaC2/10/7 [13]
  EC50: > 30 µM
  EC50 RFa I: too low to calculate the EC50 precisely
HyNaC2/11/5 [14]; [19]
  EC50: 13.8 ± 1.9 µM
HyNaC2/11/5 [14]; [20]
  Hill Coeff.: 0.9 ± 0.1
HyNaC2/3/6 [15]; EGTA-injected oocytes
  EC50: 0.29 ± 0.06 µM
  Imax RFa I, current amplitude at maximal concentration of Hydra-RFamide I: 15.7 ± 3.2 μA and 15.7 ± 3.2 (10) μA
HyNaC2/3/6 [15]; [20]
  Hill Coeff.: 1.2 ± 0.2
HyNaC2/3/7 [16]; EGTA-injected oocytes
  EC50: 0.19 ± 0.04 µM
  Imax RFa I, current amplitude at maximal concentration of Hydra-RFamide I: 19.6 ± 1.8 μA and 19.6 ± 1.8 (14) μA
HyNaC2/3/7 [16]; [20]
  Hill Coeff.: 1.6 ± 0.4
[17]
  activation of channels containing HyNaC12: In no case did this result in channels that could be activated
HyNaC2/3/5 [18]
  EC50: ~5 µM
